{
  "source": "patent US7976841B2",
  "about": "“Anti TfR antibody” (Institut National de la Sante et de la Recherche, priority 2004, dated 2011)",
  "key": {"EBV+ and EBV− MCL lines": {"test_system": "EBV+ and EBV− MCL lines", "test": "MCL cell proliferation, radioactive thymidine incorporation", "format": "cell-based, human", "conditions": "72 hours, […] to 20 μg/ml", "source_text": "The cellular proliferation is expressed as a percent of the proliferation of untreated control cells. The results are shown on FIG. 10."}, "CD20": {"molecular_target": "T1, CD20 (Homo sapiens, UniProt P11836)", "T1 construct": "target receptors TfR and CD20 at the surface of a MCL cell line EBV+ and a MCL cell line EBV^−; endogenous in cells; host or cells: MCL-derived B-cell lines (EBV+ and EBV-)", "T1 sequence (P11836 1-297)": "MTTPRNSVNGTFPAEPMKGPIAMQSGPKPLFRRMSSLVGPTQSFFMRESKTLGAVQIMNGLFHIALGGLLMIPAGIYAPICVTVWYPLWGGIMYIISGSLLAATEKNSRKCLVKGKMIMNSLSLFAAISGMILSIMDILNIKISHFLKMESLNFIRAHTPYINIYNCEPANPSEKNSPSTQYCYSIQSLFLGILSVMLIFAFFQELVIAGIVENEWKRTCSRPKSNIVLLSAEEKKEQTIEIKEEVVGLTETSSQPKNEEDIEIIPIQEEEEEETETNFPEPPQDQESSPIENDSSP", "test": "CD20 expression at the surface of MCL cell lines, flow cytometry", "format": "cell-based", "conditions": "Rituximab 10 μg/ml, 30 minutes to 72 hours", "source_text": "In a first time, we checked by flow cytometry the rate of expression of TfR and CD20 on […] B-cells lines (EBV+ and EBV^−) derived from MCL5. using an anti-CD71-PE antibody (Beckman-Coulter) and an anti-CD20-PE antibody (Becton Dickinson). The results are shown on FIGS. 8 A and B. The gray histograms respectively represent the rate of expression of the CD71 (A) and of the CD20 (B) at the surface of MCL cells EBV+ (a,b,c,e,f,g) or EBV^− (d). This rate is specified on each histogram after substraction of the background noise of the staining.\nThe results are shown on FIGS. 9A (A24) and 9B (Rituximab)."}, "[1]": {"test_system": "HTLV-1 infected T cell clones", "test": "Emergence of HTLV-1 infected T cell clones, 2-week culture", "format": "cell-based, human", "conditions": "chronic ATL PBMC, single dose on first day, 2 weeks", "description": "HTLV-1 infected cells can proliferate in vitro, but the clones that proliferate in culture are generally not the same as those that proliferate in the patient. To verify if A24 could inhibit the emergence of HTLV-1 infected T cell clones, we cultured cells freshly isolated from patients and from healthy individuals in the presence or absence of A24. PBMC from HTLV-1 infected patients with a chronic ATL form were plated in culture wells with the 30.9, A24 or Ars for 2 weeks. Emergence of HTLV-1 clones was evaluated by [3H] thymidine incorporation. After 2 weeks of culture, the appearance of proliferating cells was assessed by [3H] thymidine incorporation."}, "[2]": {"test_system": "resting T cells co-cultured with dendritic cells", "test": "Allogeneic Mixed Leukocyte Reaction (MLR), DC-induced T cell proliferation", "format": "cell-based, human", "conditions": "6 days of culture", "source_text": "Peripheral blood mononuclear cells (PBMC) were isolated as described earlier by the standard Ficoll-Paque method (Amersham Life Science, Buckinghamshire, U.K.) (BAZARBACHI et al, Blood., 93, 278-283, 1999). The healthy volunteers and the 4 acute and 3 chronic ATL patients (classified following Shirono criteria) (SHIRONO et al., Leukemia., 8, 1834-1837, 1994) had all given their informed consent. ATL tumor cells represented between 60-90% of the T cell population. Each cell type was freshly cultured in conditioned RPMI-1640 medium supplemented with 10% of fetal calf serum (FCS, Gibco BRL) and a mixture of interleukin-2 (20 U/ml IL-2) and phytohemagglutinin (4 μg/ml PHA). Mixed leukocyte reaction (MLR) was performed as described earlier (TORDJMAN et al., Nat Immunol., 3, 477-482, 2002). CIB tropical spastic paraparesis (HAM/TSP) cell line was cultured in RPMI-1640 medium supplemented with 10% of FCS.\nTo test if A24 could also block physiologically activated T cell proliferation, we examined the effect of A24 in allogeneic Mixed Leukocyte Reaction (MLR). DC-induced allogenic T cell proliferation was evaluated after 6 days of culture in the presence of A24, control antibody (30.9) or arsenic trioxide (Ars). The results are shown in FIG. 1 B. Data represents means SD of one out of three separate experiments. […]"}, "[3]": {"test_system": "tumor cells derived from ATL acute patients", "test": "Apoptosis assay (annexin V-FITC/PI, DIOC), acute ATL cells", "format": "cell-based, human", "description": "Two million of PBMC from HTLV-1 patients were treated for 96 h with IL-2 and PHA in the presence or absence of A24 (10 μg/ml), 30.9 (10 μg/ml) or of the apoptosis-inducing agent VP16 (100 ng/ml). Cells were then washed with ice-cold PBS and incubated with a combination of annexin V-FITC and propidium iodide (PI) (Beckman-Coulter, Marseilles, France), according to the manufacturer recommendations. Alternatively, the apoptosis was evaluated through mitochondrial membrane depolarization with the DIOC staining (Molecular Probes) as described earlier (ZERMATI et al., J Exp Med., 193, 247-254, 2001).\nFe deprivation induces a variety of consequences, such as the reduction of cell proliferation and the activation of programmed cell death (HAQ et al., Exp Hematol., 23, 428-432, 1995), a phenomenon associated with phosphatidylserine exposure and mitochondrial membrane depolarization. […] The results are shown of FIGS. 7 A and 7B.\nComparative effect of A24, 30.9 and VP 16 on the induction of programmed cell death in selected cells. Cells were activated or not with PHA and IL-2 and incubated in the presence of 30.9, A24 and VP16. Apoptotic and necrotic cells were followed by flow cytometry using an annexin-V-FITC/PI kit. […] Data represents one out of three different experiments."}, "[4]": {"test_system": "PBMC from HTLV-I infected patients with acute or chronic ATL", "test": "Proliferation of PBMC from ATL patients, PHA/IL-2, [3H] thymidine incorporation", "format": "cell-based, human", "conditions": "PHA/IL-2, 72 h", "description": "(§1) PBMC were resuspended in RPMI-1640 with 10% FCS, and added in triplicates at the concentration of 10^5 cells/well in 96-well tissue culture plates (Falcon, Oxnard, Calif.). Proliferation was measured over 18 h, using pulses with 1 μCi/well of [^3H]-thymidine (Amersham Life Science, Buckinghamshire, U.K.). Cells were then harvested with a 96-well Harvester (Pharmacia, St. Quentin, France), collected on filters (Pharmacia) and the incorporation of [^3H] thymidine was measured with β-plate microscintillation counter (LKB, Pharmacia).\nPBMC from healthy individuals (a) and HTLV-I infected patients with an acute ATL (b) or a chronic ATL (c) were plated in culture wells with A24 or a control antibody (30.9) in the presence of PHA/IL-2, for 72 h before [3H] thymidine incorporation. The results are shown on FIG. 2C.\n(§2) TfR expression is essential for the proliferation of both normal and malignant T cells. While TfR expression in normal T cells is tightly coupled to interleukin-2 receptor expression, TfR expression in malignant cells is usually constitutive. It was previously shown that the anti-IL-2Rα can efficiently block the ex vivo proliferation of cells derived from chronic ATL patients. […] Proliferation of these cells was then measured by [^3H] thymidine incorporation. […]"}, "[5]": {"test_system": "peripheral blood leukocytes (PBMC)", "test": "Proliferation of PHA/IL-2-activated PBMC from healthy individuals, [3H]-thymidine incorporation", "format": "cell-based, human", "conditions": "PHA/IL-2, 72 h", "description": "as §1\nTo investigate the activity of A24 on peripheral blood leukocytes (PBMC) proliferation, cells were activated with PHA/IL-2 and incubated with different concentrations of A24 (0 to 50 μg/ml) or control antibody (30.9) (0 to 50 μg/ml) for 72 h before [^3H]-thymidine incorporation.\nas §2"}},
  "data": [
    {"molecule": "Rituximab: anti-CD20 antibody manufactured by Genentech", "values": [
      {"measurement": "inhibition of MCL proliferation", "setting": "EBV+ and EBV− MCL lines", "result": "≤ 20", "unit": "%"},
      {"measurement": "expression of the CD20", "setting": "CD20", "result": "does not induce notable reduction"}
    ]},
    {"molecule": "arsenic trioxide", "values": [
      {"measurement": "effect on proliferation of HTLV-1 infected T cell clones", "setting": "[1]", "result": "more efficient than A24"},
      {"measurement": "effect on T cell proliferation", "setting": "[2]", "result": "block T cell proliferation"}
    ]},
    {"molecule": "COc1cc([C@@H]2c3cc4c(cc3[C@@H](O[C@@H]3O[C@@H]5CO[C@@H](C)O[C@H]5[C@H](O)[C@H]3O)[C@H]3COC(=O)[C@H]23)OCO4)cc(OC)c1O", "note": "[VP 16]", "values": [
      {"measurement": "annexin-V staining", "setting": "[3]; A24 10 μg/ml, VP16 100 ng/ml, 96 h", "result": "a large population that stained brightly with annexin-V appeared"},
      {"measurement": "DIOC staining (mitochondrial depolarization)", "setting": "[3]; activated leukocytes from ATL acute patient", "result": "drastic reduction"}
    ]},
    {"molecule": "anti-IL-2Rα: anti-IL-2Rα monoclonal antibody (Zenapax from Hoffmann-La Roche) (antibody, chains of the INN, looked up, V domains shown) VH: QVQLVQSGAEVKKPGSSVKVSCKASGYTFTSYRMHWVRQAPGQGLEWIGYINPSTGYTEYNQKFKDKATITADESTNTAYMELSSLRSEDTAVYYCARGGGVFDYWGQGTLVTVSS VL: DIQMTQSPSTLSASVGDRVTITCSASSSISYMHWYQQKPGKAPKLLIYTTSNLASGVPARFSGSGSGTEFTLTISSLQPDDFATYYCHQRSTYPLTFGQGTKVEVK", "values": [
      {"measurement": "effect on cell proliferation, acute ATL", "setting": "[4]; acute ATL", "result": "did not block"},
      {"measurement": "effect on cell proliferation, chronic ATL", "setting": "[4]; chronic ATL", "result": "significantly inhibited"},
      {"measurement": "effect on PHA/IL-2-induced cell proliferation", "setting": "[5]", "result": "significantly inhibited"}
    ]}
  ]
}
